# pEC50: −log10 of the molar value.
# System: LXRα and/or LXRβ
# Test: Co-transfection assay (LXRE luciferase reporter, CV-1 cells)
# Format: cell-based, human
# Conditions: read-out: activity (IC50 or EC50 for LXR), tested as described in Example 33, isoform not specified
# In short: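 CV-1 cells transiently co-transfected with full-length human LXRα or LXRβ plus RXRα, an LXRE×1-Tk-luciferase reporter and a β-galactosidase control. Compounds incubated 20 h at 37 °C (≤1% DMSO; screen at 10 μM final); luciferase read after lysis. EC50/IC50 from 8-point half-log curves (4 wells per point, ≥3 experiments); efficacy relative to a reference agonist high control and DMSO.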
row,Compound,pEC50
1,"Cc1cc(-c2cccc(S(C)(=O)=O)c2)ccc1-n1cc(C(C)(C)O)nc1Cc1cccc(Cl)c1Cl [Example 23, 2-(2-(2,3-dichlorobenzyl)-1-(3-methyl-3′-(methylsulfonyl)biphenyl-4-yl)-1H-imidazol-4-yl)propan-2-ol]",> 6.00

# Same assay, conditions: tested as described in Example 33; IC50 or EC50 for LXRα and/or LXRβ, isoform not specified; read-out: activity (IC50 or EC50 for LXR)
row,Compound,"IC50 or EC50 (potency, activation or inhibition) [nM]"
1,"Cc1cccc(Cl)c1-c1nc(C(C)(C)O)cn1-c1ccc(-c2cccc(S(C)(=O)=O)c2)cc1F [Example 128, 2-(2-(2-chloro-6-methylphenyl)-1-(3-fluoro-3′-(methylsulfonyl)biphenyl-4-yl)-1H-imidazol-4-yl)propan-2-ol]",< 1000
2,"CCS(=O)(=O)c1cccc(-c2ccc(-n3cc(C(C)(C)O)nc3-c3nccc4ccccc34)c(Cl)c2)c1 [Example 34, 2-(1-(3-chloro-3′-(ethyl-sulfonyl)biphenyl-4-yl)-2-(isoquinolin-1-yl)-1H-imidazol-4-yl)propan-2-ol]",< 1000
3,"CS(=O)(=O)c1cccc(-c2ccc(-n3cc(C(F)(F)F)nc3-c3ccccc3C(F)(F)F)cc2)c1 [Example 364, 1-[3′-(methylsulfonyl)biphenyl-4-yl]-4-(trifluoromethyl)-2-[2-(trifluoro-methyl)phenyl]-1H-imidazole]",< 1000
4,"CCS(=O)(=O)c1cccc(-c2ccc(-n3cc(C(C)(C)O)nc3-c3c(C)cccc3Cl)cc2)c1 [Example 97, 2-(2-(2-chloro-6-methylphenyl)-1-(3′-(ethylsulfonyl)biphenyl-4-yl)-1H-imidazol-4-yl)propan-2-ol]",1000 to 10000
5,Cc1cc(-c2cccc(S(C)(=O)=O)c2)ccc1-n1cc(C(=O)NCC(F)(F)F)nc1-c1ccccc1C(C)C [Example 89],< 1000
6,"CCS(=O)(=O)c1cccc(-c2ccc(-n3cc(C(C)(C)O)nc3-c3c(Cl)cccc3Cl)c(Cl)c2)c1 [Example 150, 2-(1-(3-chloro-3′-(ethyl-sulfonyl)biphenyl-4-yl)-2-(2,6-dichlorophenyl)-1H-imidazol-4-yl)propan-2-ol]",< 1000
7,"Cc1cc(-c2cccc(S(C)(=O)=O)c2)ccc1-n1cc(C(C)(C)O)nc1-c1cccc(Cl)c1Cl [Example 179, 2-(2-(2,3-dichlorophenyl)-1-(3-methyl-3′-(methylsulfonyl)biphenyl-4-yl)-1H-imidazol-4-yl)propan-2-ol]",< 1000
8,"CC(C)(O)c1cn(-c2ccc(-c3cccc(S(C)(=O)=O)c3)cc2F)c(-c2cccc(Cl)c2Cl)n1 [Example 113, 2-(2-(2,3-dichlorophenyl)-1-(3-fluoro-3′-(methylsulfonyl)biphenyl-4-yl)-1H-imidazol-4-yl)propan-2-ol]",< 1000
9,"Cc1cc(-c2cccc(S(C)(=O)=O)c2)ccc1-n1cc(C(C)(C)O)nc1-c1c(F)cccc1Cl [Example 187, 2-(2-(2-chloro-6-fluorophenyl)-1-(3-methyl-3′-(methylsulfonyl)biphenyl-4-yl)-1H-imidazol-4-yl)propan-2-ol]",< 1000
10,"COc1ccc(-c2ccc(-n3cc(C(C)(C)O)nc3-c3c(F)cccc3Cl)c(Cl)c2)cc1S(C)(=O)=O [Example 454, 2-(1-(3-chloro-4′-methoxy-3′-(methylsulfonyl)biphenyl-4-yl)-2-(2-chloro-6-fluorophenyl)-1H-imidazol-4-yl)propan-2-ol]",1000 to 10000
11,"Cc1c(Cl)cccc1-c1nc(C(C)(C)O)cn1-c1ccc(-c2ccc(CO)c(S(C)(=O)=O)c2)cc1 [Example 101, 2-(2-(3-chloro-2-methylphenyl)-1-(4′-(hydroxymethyl)-3′-(methyl-sulfonyl)biphenyl-4-yl)-1H-imidazol-4-yl)propan-2-ol]",< 1000
12,"CS(=O)(=O)c1cccc(-c2ccc(-c3[nH]c(C(F)(F)F)nc3-c3ccccc3Cl)cc2)c1 [Example 359, 4-(2-chlorophenyl)-5-[3′-(methyl-sulfonyl)biphenyl-4-yl]-2-(trifluoro-methyl)-1H-imidazole]",< 1000
13,"CC(C)(O)c1cn(Cc2cccc(Cl)c2Cl)c(-c2ccc(-c3cccc(S(C)(=O)=O)c3)cc2)n1 [Example 444, 2-(1-(2,3-dichlorobenzyl)-2-(3′-(methylsulfonyl)biphenyl-4-yl)-1H-imidazol-4-yl)propan-2-ol]",< 1000
14,"CC(C)(O)c1cn(-c2ccc(-c3ccc(S(C)(=O)=O)cc3)cc2)c(-c2ccccc2C(F)(F)F)n1 [Example 199, 2-{1-[4′-(methylsulfonyl)biphenyl-4-yl]-2-[2-(trifluoromethyl)phenyl]-1H-imidazol-4-yl}propan-2-ol]",1000 to 10000
15,"CC(C)(CO)NC(=O)c1cn(-c2ccc(-c3cccc(S(C)(=O)=O)c3)cc2)c(-c2c(Cl)cccc2Cl)n1 [Example 481, 2-(2,6-dichlorophenyl)-N-(1-hydroxy-2-methylpropan-2-yl)-1-(3′-(methylsulfonyl)biphenyl-4-yl)-1H-imidazole-4-carboxamide]",< 1000
16,"CC(C)(O)c1cn(-c2ccc(-c3cc(C(F)(F)F)ccc3F)cc2)c(-c2ccccc2C(F)(F)F)n1 [Example 220, 2-{1-[2′-fluoro-5′-(trifluoro-methyl)biphenyl-4-yl]-2-[2-(trifluoro-methyl)phenyl]-1H-imidazol-4-yl}propan-2-ol]",< 1000

row,Compound,"IC50 or EC50 (potency, activation or inhibition) [nM]"
1,"CC(C)c1ccccc1-c1nc(C(C)(C)O)cn1-c1ccc(-c2cccc(S(C)(=O)=O)c2)cc1Cl [Example 161, 2-(1-(3-chloro-3′-(methyl-sulfonyl)biphenyl-4-yl)-2-(2-isopropylphenyl)-1H-imidazol-4-yl)propan-2-ol]",< 1000
2,"CS(=O)(=O)c1cccc(-c2ccc(-n3cc(C(=S)NCC(F)(F)F)nc3-c3ccccc3Cl)cc2)c1 [Example 398, 2-(2-chlorophenyl)-1-[3′-(methyl-sulfonyl)biphenyl-4-yl]-N-(2,2,2-trifluoroethyl)-1H-imidazole-4-carbothioamide]",< 1000
3,"CC(C)(O)c1cn(-c2ccc(-c3cccc(S(C)(=O)=O)c3)cc2)c(-c2c(F)cccc2Cl)n1 [Example 416, 2-{2-(2-chloro-6-fluorophenyl)-1-[3′-(methylsulfonyl)biphenyl-4-yl]-1H-imidazol-4-yl}propan-2-ol]",1000 to 10000
4,"CC(C)(O)c1cn(-c2ccc(-c3cccc(S(C)(=O)=O)c3)cc2)c(-c2ccccc2)n1 [Example 378, 2-{1-[3′-(methylsulfonyl)biphenyl-4-yl]-2-phenyl-1H-imidazole-4-yl}propan-2-ol]",1000 to 10000
5,"CC(C)(O)c1cn(-c2ccc(-c3cccc(S(C)(=O)=O)c3)cc2Cl)c(-c2c(F)cccc2F)n1 [Example 157, 2-(1-(3-chloro-3′-(methyl-sulfonyl)biphenyl-4-yl)-2-(2,6-difluorophenyl)-1H-imidazol-4-yl)propan-2-ol]",< 1000
6,"COC(=O)c1cccc(-c2ccc(-n3cc(C(C)(C)O)nc3-c3ccccc3Cl)cc2)c1 [Example 390, methyl 4′-[2-(2-chlorophenyl)-4-(1-hydroxy-1-methylethyl)-1H-imidazol-1-yl]biphenyl-3-carboxylate]",1000 to 10000
7,"CN1CCN(C(=O)c2cn(-c3ccc(-c4cccc(S(C)(=O)=O)c4)cc3)c(-c3c(Cl)cccc3Cl)n2)CC1 [Example 83, (2-(2,6-dichlorophenyl)-1-(3′-(methylsulfonyl)biphenyl-4-yl)-1H-imidazol-4-yl)(4-methylpiperazin-1-yl)methanone]",1000 to 10000
8,"Cc1cc(-c2cccc(S(C)(=O)=O)c2)ccc1-n1cc(C(C)(C)O)nc1-c1c(F)cccc1F [Example 193, 2-(2-(2,6-difluorophenyl)-1-(3-methyl-3′-(methylsulfonyl)biphenyl-4-yl)-1H-imidazol-4-yl)propan-2-ol]",< 1000
9,"CCS(=O)(=O)c1cccc(-c2ccc(-n3cc(C(C)(C)O)nc3-c3cccc(F)c3Cl)c(C)c2)c1 [Example 186, 2-(2-(2-chloro-3-fluorophenyl)-1-(3′-(ethylsulfonyl)-3-methylbiphenyl-4-yl)-1H-imidazol-4-yl)propan-2-ol]",< 1000
10,"C=C(C)c1cn(-c2ccc(-c3cccc(S(C)(=O)=O)c3)cc2)c(-c2c(Cl)cccc2Cl)n1 [Example 78, 2-(2,6-dichlorophenyl)-1-(3′-(methylsulfonyl)biphenyl-4-yl)-4-(prop-1-en-2-yl)-1H-imidazole]",< 1000
11,"Cc1cc(-c2cccc(S(C)(=O)=O)c2)ccc1-n1cc(C(C)(C)O)nc1-c1ccccc1Cl [Example 418, 2-{2-(2-chlorophenyl)-1-[3-methyl-3′-(methylsulfonyl)biphenyl-4-yl]-1H-imidazol-4-yl}propan-2-ol]",< 1000
12,"CC(C)(O)c1cn(-c2ccc(-c3cccc(S(C)(=O)=O)c3)cc2Cl)c(-c2c(F)cccc2Cl)n1 [Example 145, 2-(1-(3-chloro-3′-(methyl-sulfonyl)biphenyl-4-yl)-2-(2-chloro-6-fluorophenyl)-1H-imidazol-4-yl)propan-2-ol]",< 1000
13,"CCS(=O)(=O)c1cccc(-c2ccc(-n3cc(C(C)(C)O)nc3-c3cccc(F)c3Cl)cc2)c1 [Example 95, 2-(2-(2-chloro-3-fluorophenyl)-1-(3′-(ethylsulfonyl)biphenyl-4-yl)-1H-imidazol-4-yl)propan-2-ol]",< 1000
14,CC(C)S(=O)(=O)c1cccc(-c2ccc(-n3cc(C(C)(C)O)nc3-c3ccccc3C(F)(F)F)cc2)c1 [Example 413],< 1000
15,"CC(C)(O)c1cn(-c2ccc(-c3ccc(CO)c(S(C)(=O)=O)c3)cc2Cl)c(-c2ccccc2Cl)n1 [Example 138, 2-(1-(3-chloro-4′-(hydroxymethyl)-3′-(methylsulfonyl)biphenyl-4-yl)-2-(2-chlorophenyl)-1H-imidazol-4-yl)propan-2-ol]",< 1000

# Reference: patent US9000022B2 (Exelixis Patent Company LLC, priority 2005, dated 2015)
